Source: patent publication US5696112A, “Fused heterocyclic azepines as vasopressin antagonists” (American Cyanamid Company, priority 1995, dated 1997)
Where two headings read alike, the source gives them in different places.

Tests used:
oxytocin receptors = target: T1, oxytocin receptors (Rattus norvegicus, UniProt P70536); experiment: Oxytocin Receptor Binding; design: species or system Sprague-Dawley rats; settings: for IC50: 1.0 nM [3H]oxytocin
T1 construct: The uteri are dissected out, cleaned of fat and connective tissues; from tissue; host or cells: uterus membranes of DES-treated female Sprague-Dawley rats
T1 sequence (P70536 1-388): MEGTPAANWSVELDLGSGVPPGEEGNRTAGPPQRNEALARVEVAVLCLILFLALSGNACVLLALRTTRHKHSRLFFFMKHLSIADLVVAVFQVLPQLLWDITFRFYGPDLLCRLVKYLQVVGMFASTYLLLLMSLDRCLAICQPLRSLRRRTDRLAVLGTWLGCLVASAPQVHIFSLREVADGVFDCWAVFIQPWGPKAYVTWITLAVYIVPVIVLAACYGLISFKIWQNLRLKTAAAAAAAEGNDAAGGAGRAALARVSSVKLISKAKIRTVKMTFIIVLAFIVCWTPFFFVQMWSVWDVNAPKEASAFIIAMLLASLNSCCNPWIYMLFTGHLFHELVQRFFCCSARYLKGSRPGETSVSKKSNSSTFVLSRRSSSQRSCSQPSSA
Method in brief: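 Membranes from uteri of DES-primed (0.3 mg/kg i.m., 18 h) female Sprague-Dawley rats incubated 60 min at 22 °C with 1.0 nM [3H]oxytocin in 50 mM Tris.HCl pH 7.4, 5 mM MgCl2 plus protease inhibitors; nonspecific binding with 1.0 uM oxytocin. IC50 from displacement after filtration.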

Vasopressin V1 = Vasopressin V1 Antagonist Activity in Conscious Rats (vasopressin vasopressor response); format: in vivo, rat; settings: for inhibition in vivo at 30 mg/kg / inhibition in vivo at 10 mg/kg / inhibition in vivo at 20 mg/kg: Rattus norvegicus, read-out: Vasopressin vasopressor response, Max. % Inhibition
Description: Vasopressin V1 Antagonist Activity in Conscious Rats Conscious rats are restrained in a supine position with elastic tape. The area at the base of the tail is locally anesthetization by subcutaneous infiltration with 2% procaine (0.2 ml). Using aseptic technique the ventral caudal tail artery is isolated and a cannula made of PE 10 and 20 (heat-fused) tubing is passed into the lower abdominal aorta. The cannula is secured, heparinized (1000 i.u./cc), sealed and the would closed with one or two stitches of Dexon 4-0. The caudal vein is also cannulated in the same manner for intravenous drug administration. The duration of the surgery is approximately 5 minutes. Additional local anesthesia (2% procaine or lidocaine) is provided as needed. The animals are placed in plastic restraining cages in an upright position. The cannula is attached to a […] pressure transducer and pulsatile blood pressure is recorded. […] Percentage of antagonism by the compound is calculated using the pre-drug vasopressin vasopressor response as 100%.

Vasopressin V2 = Vasopressin V2 Antagonist Activity in Conscious Hydrated Rats; format: in vivo, rat; settings: AVP 0.4 μg/kg i.p.
Description: Vasopressin V2 Antagonist Activity in conscious Hydrated Rats Conscious hydrated rats are treated with compounds under study from 0.1 to 100 mg/kg orally or vehicle. Two to four rats are used for each compound. One hour later, arginine vasopressin (AVP, antidiuretic hormone, ADH) dissolved in peanut oil is administered at 0.4 μg/kg intraperitoneally. Two rats in each test would not receive arginine vasopressin but only the vehicle (peanut oil) to serve as water-loading control. Twenty minutes later each rat is given 30 mL/kg of deionized water orally by gavage and is placed individually in a metabolic cage equipped with a funnel and a graduated glass cylinder to collect urine for four hours. Urine volume is measured and osmolality analyzed by use of a Fiske One-Ten osmometer (Fiske Assoc., Norwood, Mass. USA). Urinary sodium, potassium, and chloride are analyzed by use of ion-specific electrodes in a Beckman E3 (Electrolyte 3) Analyzer. In the following results, […] and […] osmolality relative to AVP-control indicates activity.

SMILES	IC50 (oxytocin receptors)	inhibition at 10 µM (oxytocin receptors)	Time (Min) of Max. % Inhibition (Vasopressin V1; 30 mg/kg po)	inhibition in vivo at 30 mg/kg (Vasopressin V1; 30 mg/kg po)	Osmolality (Vasopressin V2; 30 mg/kg P.O.)	Urine Volume (Vasopressin V2; 30 mg/kg P.O.)	Time (Min) of Max. % Inhibition (Vasopressin V1; 10 mg/kg iv)	inhibition in vivo at 10 mg/kg (Vasopressin V1; 10 mg/kg iv)	Osmolality (Vasopressin V2; 10 mg/kg P.O.)	Urine Volume (Vasopressin V2; 10 mg/kg P.O.)	Time (Min) of Max. % Inhibition (Vasopressin V1; 20 mg/kg iv)	inhibition in vivo at 20 mg/kg (Vasopressin V1; 20 mg/kg iv)	inhibition at 1.25 µM (oxytocin receptors; 1.25 μM)	Time (Min) of Max. % Inhibition (Vasopressin V1; 30 mg/kg iv)	inhibition in vivo at 30 mg/kg (Vasopressin V1; 30 mg/kg iv)
O=C(Nc1ccc(C(=O)N2CCCCc3sccc32)cc1)c1cc(Cl)ccc1Cl [Example 9, N-[4-[(5,6,7,8-Tetrahydro-4H-thieno[3,2-b]azepin-4-yl)carbonyl]phenyl]2,5-dichlorobenzamide]	5.2 µM	60%	180 min	17%	–	–	–	–	–	–	–	–	–	–	–
Cc1ccccc1CC(=O)Nc1ccc(C(=O)N2CCCCc3sccc32)cc1 [Example 13, N-[4-[(5,6,7,8-Tetrahydro-4H-thieno[3,2-b]azepin-4-yl)carbonyl]phenyl]2-methylbenzeneacetamide]	0.68 µM	95%	–	–	516 mOsm/kg	9.5 ml/4 hours	60 min	80%	–	–	–	–	–	–	–
O=C(Nc1ccc(C(=O)N2CCCCc3sccc32)c(Cl)c1)c1ccc(Cl)cc1Cl [Example 68, N-[4-[(5,6,7,8-Tetrahydro-4H-thieno[3,2-b]azepin-4-yl)carbonyl]-3-chlorophenyl]-2,4-dichlorobenzamide]	–	55%	–	–	–	–	–	–	647 mOsm/kg	10.3 ml/4 hours	120 min	50%	–	–	–
Cc1ccc(F)cc1C(=O)Nc1ccc(C(=O)N2CCCCc3sccc32)c(Cl)c1 [Example 70, N-[4-[(5,6,7,8-Tetrahydro-4H-thieno[3,2-b]azepin-4-yl)carbonyl]-3-chlorophenyl]-5-fluoro-2-methylbenzamide]	0.51 µM	97%	–	–	–	–	–	–	1070 mOsm/kg	4 ml/4 hours	120 min	67%	–	–	–
O=C(Nc1ccc(C(=O)N2CCCCc3sc(Cl)cc32)cc1)c1ccc(Cl)cc1Cl [Example 93, 2,4-Dichloro-N-[4-[(2-chloro-5,6,7,8-tetrahydro-4H-thieno[3,2-b]azepin-4-yl)carbonyl]phenyl]benzamide]	1.8 µM	83%	–	–	–	–	–	–	1056 mOsm/kg	7.6 ml/4 hours	90 min	77%	–	–	–
Cc1c(F)cccc1C(=O)Nc1ccc(C(=O)N2CCCCc3sc(Cl)cc32)cc1 [Example 94, N-[4-[(2-Chloro-5,6,7,8-tetrahydro-4H-thieno[3,2-b]azepin-4-yl)carbonyl]phenyl]-3-fluoro-2-methylbenzamide]	0.95 µM	97%	–	–	–	–	–	–	910 mOsm/kg	8.8 ml/4 hours	90 min	74%	–	–	–
O=C(Nc1ccc(C(=O)N2CCCCc3sc(Cl)cc32)cc1)c1c(Cl)cccc1Cl [Example 95, N-[4-[(2-Chloro-5,6,7,8-tetrahydro-4H-thieno[3,2-b]azepin-4-yl)carbonyl]phenyl]-2,6-dichlorobenzamide]	1.38 µM	85%	–	–	–	–	30 min	61%	1122 mOsm/kg	5 ml/4 hours	–	–	–	–	–
Cc1ccccc1C(=O)Nc1ccc(C(=O)N2CCCCc3sc(Cl)cc32)cc1 [Example 96, N-[4-[(2-Chloro-5,6,7,8-tetrahydro-4H-thieno[3,2-b]azepin-4-yl)carbonyl]phenyl]-2-methylbenzamide]	0.27 µM	–	–	–	465 mOsm/kg	16.1 ml/4 hours	90 min	65%	–	–	–	–	58%	–	–
Cc1c(F)cccc1C(=O)Nc1ccc(C(=O)N2CCCC(=O)c3sccc32)cc1 [Example 155, N-[4-[(5,6,7,8-Tetrahydro-8-oxo-4H-thieno[3,2-b]azepine-4-yl)carbonyl]phenyl]-3-fluoro-2-methylbenzamide]	–	16%	–	–	–	–	–	–	1053 mOsm/kg	4.5 ml/4 hours	60 min	62%	–	–	–
O=C(Nc1ccc(C(=O)N2CCCC(=O)c3sccc32)cc1)c1ccc(Cl)cc1Cl [Example 156, N-[4-[(5,6,7,8-Tetrahydro-8-oxo-4H-thieno[3,2-b]azepin-4-yl)carbonyl]-phenyl]-2,4-dichlorobenzamide]	–	0%	–	–	–	–	–	–	1266 mOsm/kg	3.8 ml/4 hours	240 min	63%	–	–	–
Cc1ccccc1C(=O)Nc1ccc(C(=O)N2CCCC(=O)c3sccc32)cc1 [Example 157, N-[4-[(5,6,7,8-Tetrahydro-8-oxo-4H-thieno[3,2-b]azepin-4-yl)carbonyl]-phenyl]-2-methylbenzamide]	–	29%	–	–	–	–	–	–	1070 mOsm/kg	6.5 ml/4 hours	60 min	66%	–	–	–
O=C(Nc1ccc(C(=O)N2CCCCc3sccc32)c(Cl)c1)c1ccc(F)cc1Cl [Example 183]	0.6 µM	86%	–	–	–	–	–	–	512 mOsm/kg	8.3 ml/4 hours	–	–	–	120 min	78%
